Reference: publication PMC3466778 (Biochemistry, 2012)

Target: T1, KcsA (Streptomyces lividans, UniProt P0A334)
T1 sequence (P0A334 1-160): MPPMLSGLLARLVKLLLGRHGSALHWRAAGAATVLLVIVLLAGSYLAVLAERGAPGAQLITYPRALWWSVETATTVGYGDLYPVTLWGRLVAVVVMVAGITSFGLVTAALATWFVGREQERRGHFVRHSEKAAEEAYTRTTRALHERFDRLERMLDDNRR
Assay: fluorescence titration
Type: binding

## CN(C)c1cccc2c(S(=O)(=O)NCCCCCCCCCCC(=O)O)cccc12 [Dauda]
  Kd: 470 ± 100 nM
